{"source": "patent US8742167B2", "about": "“Therapeutic formulations based on asiatic acid and selected salts thereof” (Shanghai Institute of Pharmaceutical Industry, priority 2008, dated 2014)", "key": {"TNF-α": {"tested_on": "TNF-α", "experiment": "Serological test (ELISA kit) of TNF-α in rats of bleomycin-induced pulmonary fibrosis", "assay_type": "in vivo, SD rats", "conditions": "serum; for TNF-α (2nd day) X ± SD: dosing from 2nd day; for TNF-α (7th day) X ± SD: dosing from 7th day", "protocol": "TNF-α Kit, Human 96T ELISA kit imported by Shanghai Jingmei\n(§1) Male SD rats, body weight 250-300 g. The animals were anesthetized with 3% seconal, laid flat and fixed onto the operating table. The necks of the animals were disinfected with alcohol and cut to expose tracheae. A needle was inserted via the space between tracheal rings centripetally, and 5 mg/kg of bleomycin was injected. The rats were kept upright and rotated, in order to keep the solution uniformly distributed in the lungs. Then the incisions were sutured.\n(§2) After the rats regained consciousness, they were randomly grouped. The animals were divided into (i) a group receiving administration on the next day after establishing the model and (ii) a group receiving administration at 7 days after the model was established. Included were 27, 9, and 3 mg/kg p.o.×28 d asiatic acid groups, 0.6 mg/kg p.o.×28 d dexamethasone group, 36 mg/kg p.o.×28 d asiaticoside group, model group, and blank group. Normal saline was administered for the model and blank groups. On the 28th day after asiatic acid and asiaticoside administration, survival and weight ratio of lungs were measured; pathological examination and serological examination were performed.\n(§3) Serum samples were prepared according to a standard protocol (centrifuged 3000 rpm, 10 minutes after collection) and were stored at −20° C. Testing was conducted in accordance with kit instructions."}, "Type III collagen": {"tested_on": "Type III collagen", "experiment": "Type III collagen content, bleomycin rat model", "assay_type": "in vivo, SD rats", "protocol": "as §1, §2"}, "[1]": {"tested_on": "bleomycin-induced pulmonary fibrosis in rats", "experiment": "Lung weight index of bleomycin-induced pulmonary fibrosis in rats", "assay_type": "in vivo, SD rats", "conditions": "for lung weight ratio (%): (lung weight/body weight)x100%", "protocol": "as §1, §2\nEffect of on lung weight index of bleomycin-induced pulmonary fibrosis in rats treated with asiatic acid Body weight and lung weight were measured after the rats were sacrificed. Lung weight ratio=(lung weight/body weight)×100%."}, "TFG-β": {"tested_on": "TFG-β", "experiment": "Serological test (ELISA kit) of TFG-β in rats of bleomycin-induced pulmonary fibrosis", "assay_type": "in vivo, SD rats", "conditions": "serum; for TFG-β (2nd day) X ± SD: dosing from 2nd day; for TFG-β (7th day) X ± SD: dosing from 7th day", "protocol": "TFG-β Kit, Human 96T ELISA kit imported by Shanghai Jingmei\nas §1, §2, §3"}, "[2]": {"tested_on": "pulmonary fibrosis induced by bleomycin in rats", "experiment": "Pathological analysis of lung (HE staining; collagen fiber and elastic fiber dual staining)", "assay_type": "in vivo, SD rats", "conditions": "asiaticoside 36 mg/kg; administration on the next day after establishing model", "protocol": "as §1, §2\nThe lung tissues were fixed in 10% formalin for 1 week. […] The thickness of sections was […]. Routine hematoxylin-eosin (HE) staining was performed. Dual special staining of collagen fibers and elastic fibers were conducted in order to detect the degree of fibrosis. The staining of the two groups of sections was observed and the results were as follows."}, "[3]": {"tested_on": "bleomycin-induced pulmonary fibrosis in rats", "experiment": "Mortality during experiment days 7-28, bleomycin-induced pulmonary fibrosis in rats", "assay_type": "in vivo, SD rats", "protocol": "as §1, §2"}, "Hydroxyproline": {"tested_on": "Hydroxyproline", "experiment": "Measured value of hydroxyproline in experiment of asiatic acid antagonizing fibrosis", "assay_type": "in vivo, SD rats", "set-up": "Measured Value of Hydroxyproline (on 2nd day), single animals / Measured Value of Hydroxyproline (on 2nd day), X / Measured Value of Hydroxyproline (on 7th day), single animals / Measured Value of Hydroxyproline (on 7th day), X: unit not given here", "conditions": "for Measured Value of Hydroxyproline (on 2nd day), X / Measured Value of Hydroxyproline (on 7th day), X: group mean", "protocol": "as §1, §2"}, "[4]": {"experiment": "Solubility in water and methanol (saturated solutions, HPLC)", "assay_type": "physicochemical", "conditions": "for Solubility: single preparations (inj 1A-1C)", "protocol": "Approximately 5 mg of asiatic acid were transferred into a 25 mL volumetric flask, and 1 mL, of methanol was added and mixed well, until the acid had dissolved in the methanol. The volumetric flask then was brought to volume with mobile phase and mixed well. [table] Saturated solutions obtained from starting material and salt in methanol and water were filtered and diluted accordingly with mobile phase. No dilution was performed for asiatic acid in water. Samples were prepared in triplicate except for the sodium salt prepared in methanol, for which two preparations were done."}, "[5]": {"conditions": "asiaticoside 36 mg/kg, individual rats 1-10"}, "[6]": {"conditions": "dexamethasone (0.6 mg/kg), individual rats 1-6"}}, "note": "Several values for one entry are separate records, joined by “and”; a condition that tells them apart may be missing. Equal entries are not always repeated. Entries after “also recorded” stand apart in the source; their conditions may differ. Structures can show the parent of a compound that is named as a salt. Where two headings read alike, the source gives them in different places. Marks after values point to notes of the source that are not given here.", "data": [{"smiles": "C[C@H]1[C@H](C)CC[C@]2(C(=O)O[C@@H]3O[C@H](CO[C@@H]4O[C@H](CO)[C@@H](O[C@@H]5O[C@H](C)[C@H](O)[C@@H](O)[C@H]5O)[C@H](O)[C@H]4O)[C@@H](O)[C@H](O)[C@H]3O)CC[C@]3(C)C(=CC[C@@H]4[C@@]5(C)C[C@@H](O)[C@H](O)[C@@](C)(CO)[C@@H]5CC[C@]43C)[C@H]12", "note": "[Asiaticoside, asiaticoside]", "values": [{"measurement": "TNF-α (2nd day) X ± SD", "setting": "TNF-α; asiaticoside 36 mg/kg", "result": "0.064 ± 0.013", "unit": "OD value"}, {"measurement": "TNF-α (7th day) X ± SD", "setting": "TNF-α; asiaticoside 36 mg/kg", "result": "0.091 ± 0.027", "unit": "OD value"}, {"measurement": "serum levels of type III collagen", "setting": "Type III collagen; overall statement", "result": "significantly decrease bleomycin-induced fibrosis"}, {"measurement": "lung weight ratio (%)", "setting": "[1]; asiaticoside 36 mg/kg, started 7 day after model established", "result": "0.80** %"}, {"measurement": "lung weight ratio (%)", "setting": "[1]; asiaticoside 36 mg/kg, started from the second day", "result": "0.84** %"}, {"measurement": "lung weight (g) X ± SD", "setting": "[1]; asiaticoside 36 mg/kg, 28-day administration started 7 day after model established", "result": "2.59 ± 0.33", "unit": "g"}, {"measurement": "lung weight (g) X ± SD", "setting": "[1]; asiaticoside 36 mg/kg, 28-day administration started from the second day", "result": "2.62 ± 0.38", "unit": "g"}, {"measurement": "lung weight to body weight ratio", "setting": "[1]; starting on 2nd or 7th day, compared with the model group", "result": "significantly decrease bleomycin-induced lung fibrosis"}, {"measurement": "TFG-β (2nd day) X ± SD", "setting": "TFG-β; asiaticoside 36 mg/kg", "result": "0.670 ± 0.155", "unit": "OD value"}, {"measurement": "TFG-β (7th day) X ± SD", "setting": "TFG-β; asiaticoside 36 mg/kg", "result": "1.181 ± 0.364", "unit": "OD value"}, {"measurement": "lung pathology, HE staining", "setting": "[2]", "result": "less serious than those of the model group"}, {"measurement": "remaining samples at the end of study", "setting": "[3]; asiaticoside 36 mg/kg p.o. x 28 d, dosing started on 2nd day, 14 on day 7", "result": 12}, {"measurement": "number of deaths", "setting": "[3]; asiaticoside 36 mg/kg p.o. x 28 d, dosing started on 2nd day, days 7-28", "result": 2}, {"measurement": "number of deaths", "setting": "[3]; asiaticoside 36 mg/kg p.o. x 28 d, dosing started on 7th day", "result": 2}, {"measurement": "remaining samples at the end of study", "setting": "[3]; asiaticoside 36 mg/kg p.o. x 28 d, dosing started on 7th day, 13 in the group", "result": 11}, {"measurement": "survival / bleomycin-induced death", "setting": "[3]; rats treated with bleomycin, treatment initiated one day or seven days after bleomycin", "result": "largely prevented bleomycin-induced death; also recorded: significantly enhance survival"}, {"measurement": "Measured Value of Hydroxyproline (on 2nd day), X", "setting": "Hydroxyproline; asiaticoside 36 mg/kg", "result": 24.11}, {"measurement": "Measured Value of Hydroxyproline (on 7th day), X", "setting": "Hydroxyproline; asiaticoside 36 mg/kg", "result": 26.57}, {"measurement": "Measured Value of Hydroxyproline (on 2nd day), single animals", "setting": "Hydroxyproline; [5]", "result": "28.56 and 28.69 and 19.63 and 25.34 and 28.11 and 20.54 and 25.36 and 19.47 and 25.25 and 20.11"}, {"measurement": "Measured Value of Hydroxyproline (on 7th day), single animals", "setting": "Hydroxyproline; [5]", "result": "28.19 and 24.36 and 28.17 and 24.69 and 29.1 and 25.11 and 25.91 and 24.97 and 29.69 and 25.55"}, {"measurement": "serum levels of hydroxyproline", "setting": "Hydroxyproline; overall statement", "result": "significantly decrease bleomycin-induced fibrosis"}]}, {"smiles": "C[C@@H]1C[C@H]2[C@@H]3CCC4=CC(=O)C=C[C@]4(C)[C@@]3(F)[C@@H](O)C[C@]2(C)[C@@]1(O)C(=O)CO", "note": "[Dexamethasone, reference compound]", "values": [{"measurement": "TNF-α (2nd day) X ± SD", "setting": "TNF-α; dexamethasone 0.6 mg/kg", "result": "0.073 ± 0.006", "unit": "OD value"}, {"measurement": "TNF-α (7th day) X ± SD", "setting": "TNF-α; dexamethasone 0.6 mg/kg", "result": "0.060 ± 0.006", "unit": "OD value"}, {"measurement": "Type III collagen content X ± SD", "setting": "Type III collagen; Dex (0.6 mg/kg), treatment starting on Day 7", "result": "0.518 ± 0.527"}, {"measurement": "lung weight ratio (%)", "setting": "[1]; dexamethasone 0.6 mg/kg, started 7 day after model established", "result": 1.14, "unit": "%"}, {"measurement": "lung weight ratio (%)", "setting": "[1]; dexamethasone 0.6 mg/kg, started from the second day", "result": 1.31, "unit": "%"}, {"measurement": "lung weight (g) X ± SD", "setting": "[1]; dexamethasone 0.6 mg/kg, 28-day administration started 7 day after model established", "result": "2.05 ± 0.40", "unit": "g"}, {"measurement": "lung weight (g) X ± SD", "setting": "[1]; dexamethasone 0.6 mg/kg, 28-day administration started from the second day", "result": "2.06 ± 0.52", "unit": "g"}, {"measurement": "TFG-β (2nd day) X ± SD", "setting": "TFG-β; dexamethasone 0.6 mg/kg", "result": "0.751 ± 0.214", "unit": "OD value"}, {"measurement": "TFG-β (7th day) X ± SD", "setting": "TFG-β; dexamethasone 0.6 mg/kg", "result": "0.717 ± 0.197", "unit": "OD value"}, {"measurement": "remaining samples at the end of study", "setting": "[3]; dexamethasone 0.6 mg/kg p.o. x 28 d, dosing started on 2nd day, 14 on day 7", "result": 6}, {"measurement": "number of deaths", "setting": "[3]; dexamethasone 0.6 mg/kg p.o. x 28 d, dosing started on 2nd day, days 7-28", "result": 8}, {"measurement": "number of deaths", "setting": "[3]; dexamethasone 0.6 mg/kg p.o. x 28 d, dosing started on 7th day", "result": 7}, {"measurement": "remaining samples at the end of study", "setting": "[3]; dexamethasone 0.6 mg/kg p.o. x 28 d, dosing started on 7th day, 13 in the group", "result": 6}, {"measurement": "Measured Value of Hydroxyproline (on 2nd day), X", "setting": "Hydroxyproline; dexamethasone (0.6 mg/kg)", "result": 23.45}, {"measurement": "Measured Value of Hydroxyproline (on 7th day), X", "setting": "Hydroxyproline; dexamethasone (0.6 mg/kg)", "result": 27.35}, {"measurement": "Measured Value of Hydroxyproline (on 2nd day), single animals", "setting": "Hydroxyproline; [6]", "result": "19.86 and 23.31 and 21.69 and 24.63 and 25.36 and 25.87"}, {"measurement": "Measured Value of Hydroxyproline (on 7th day), single animals", "setting": "Hydroxyproline; [6]", "result": "25.17 and 27.44 and 25.99 and 29.66 and 28.07 and 27.75"}]}, {"smiles": "C[C@H]1[C@H](C)CC[C@]2(C(=O)O)CC[C@]3(C)C(=CC[C@@H]4[C@@]5(C)C[C@@H](O)[C@H](O)[C@@](C)(CO)[C@@H]5CC[C@]43C)[C@H]12", "note": "[Asiatic acid-Na salt NaOH, asiatic acid sodium salt]", "values": [{"measurement": "Solubility", "setting": "[4]; MeOH, sodium salt", "result": 24080, "unit": "µg/mL"}, {"measurement": "Solubility", "setting": "[4]; methanol, organic solvent or mixture, thermodynamic from solid, MeOH, read-out: Solubility", "result": 25400, "unit": "µg/mL"}, {"measurement": "times more soluble than asiatic acid", "setting": "[4]; water", "result": "~228", "unit": "times"}, {"measurement": "Solubility", "setting": "[4]; water, thermodynamic from solid, water, read-out: Solubility", "result": 6860, "unit": "µg/mL"}, {"measurement": "Solubility", "setting": "[4]; water, sodium salt", "result": "6360 µg/mL and 7320 µg/mL"}]}]}
